# Columns and labels:
# Turnip (TP) [1] = experiment: Pre-emergence herbicide test; type: in vivo, Brassica sp.; details: Brassica rapa, pre-emergence, 336 h, two weeks after treatment; for pest or weed control at 8966.8 g/ha: 8 lb/acre
# Procedure, shortened: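 In this pre-emergence greenhouse test, turnip was seeded on the surface of potting soil in 3' plastic pots, lightly covered with screened soil, and watered from below. One day later the pots were sprayed in a belt-fed spray hood. Watering continued only by sub-irrigation, and percent control was visually scored two weeks after treatment.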
# Corn (CN) [2] = experiment: Post-emergence herbicide test; type: in vivo; details: Zea mays, 336 h, two weeks after treatment; for pest or weed control at 8966.8 g/ha: 8 lb/acre
# Procedure, shortened: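 Greenhouse seedlings grown in potting soil and sprayed post-emergence at 8 lbs compound/acre (formulations also made for 4 lbs/acre) in 38 gallons/acre spray volume. Watering by sub-irrigation only. Injury or control rated visually two weeks after treatment.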
# Barnyard grass (BG) [3] = experiment: Post-emergence herbicide test; type: in vivo; details: Echinochloa crus-galli, 336 h, two weeks after treatment; for pest or weed control at 8966.8 g/ha: 8 lb/acre
# Procedure, shortened: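 Greenhouse pot-grown barnyard grass seedlings sprayed post-emergence at 8 lbs active compound per acre (some at 4 lbs/acre) in 38 gallons per acre, then sub-irrigated. Injury or control rated visually two weeks after treatment.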
# Crabgrass (CG) [4] = experiment: Pre-emergence herbicide test; type: in vivo, Digitaria sanquinalis; details: Digitaria sanguinalis, pre-emergence, 336 h, two weeks after treatment; for pest or weed control at 8966.8 g/ha: 8 lb/acre
# Procedure, shortened: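 Crabgrass (Digitaria sanquinalis) was surface seeded in 3' plastic pots of potting soil, covered with screened soil, and watered by sub-irrigation in greenhouse trays. Pots were seeded one day before spraying in a hood with a moving belt and fixed nozzle. Plants stayed in the greenhouse on sub-irrigation, and pre-emergence control was rated visually two weeks after treatment.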
# Corn (CN) [5] = experiment: Pre-emergence herbicide test; type: in vivo; details: Zea mays, 336 h, two weeks after treatment; for pest or weed control at 8966.8 g/ha: 8 lb/acre
# Procedure, shortened: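 Visual injury/control ratings were made 2 weeks post-spray on corn pots seeded (4 seeds, seed-diameter depth) the day before treatment. Application was a belt-hood spray of 38 gal/acre delivering 8 lbs active per acre, with a 4 lbs/acre rate also formulated. Watering was by sub-irrigation throughout.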
# Turnip (TP) [6] = experiment: Post-emergence herbicide test; type: in vivo, Brassica sp.; details: Brassica rapa, post-emergence, 336 h, two weeks after treatment; for pest or weed control at 8966.8 g/ha: 8 lb/acre
# Procedure, shortened: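 A greenhouse post-emergence herbicide test on turnip. Seeds were sown on the surface of potting soil in 3' plastic pots, lightly covered with screened soil and watered from below. Planting was timed so seedlings had 1 or 2 true leaves above the cotyledons at spraying, done in a hood with a fixed nozzle. Control or injury was scored by eye after two weeks.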
# Bean (BN) [7] = experiment: Pre-emergence herbicide test; type: in vivo, Phaseolus vulgaris var. Black Valentine; details: Phaseolus vulgaris, 336 h, two weeks after treatment; for pest or weed control at 8966.8 g/ha: 8 lb/acre
# Procedure, shortened: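 Visual injury/control ratings were taken two weeks post-spray on sub-irrigated Phaseolus vulgaris var. Black Valentine. Pots were sown a day before treatment. Pre-emergence spray delivered 8 lbs actual compound per acre (or 4 lbs/acre) at 38 gallons per acre.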
# Johnson grass (JG) [8] = experiment: Post-emergence herbicide test; type: in vivo, Sorgum helepense; details: Sorghum halepense, 336 h, two weeks after treatment; for pest or weed control at 8966.8 g/ha: 8 lb/acre
# Procedure, shortened: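 Visual injury or control scores taken 2 weeks after a post-emergence spray of pot-grown plants. Application was 8 lbs/acre (or 4 lbs/acre) in 38 gal/acre. Plants were held in the greenhouse with sub-irrigation only.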
# Barnyard grass (BG) [9] = experiment: Pre-emergence herbicide test; type: in vivo; details: Echinochloa crus-galli, 336 h, two weeks after treatment; for pest or weed control at 8966.8 g/ha: 8 lb/acre
# Procedure, shortened: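 Greenhouse pre-emergence spray test: pots seeded one day before treatment received compound at rates of 8 or 4 lb/acre (38 gal/acre). Visual injury/control scores for Echinochloa crus-galli taken at two weeks, with watering by sub-irrigation only.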
# Cotton (CT) [10] = experiment: Pre-emergence herbicide test; type: in vivo, Gossypium hirsutum var. DPL smooth leaf; details: Gossypium hirsutum, 336 h, two weeks after treatment; for pest or weed control at 8966.8 g/ha: 8 lb/acre
# Procedure, shortened: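 Visual injury/control ratings were taken at two weeks post-spray. Pots seeded a day earlier received compound pre-emergence at 8 lbs/acre, or 4 lbs/acre, in a 38 gallon/acre spray volume, and were then held in the greenhouse, watered only from below.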
# Bean (BN) [11] = experiment: Post-emergence herbicide test; type: in vivo, Phaseolus vulgaris var. Black Valentine; details: Phaseolus vulgaris, post-emergence, 336 h, two weeks after treatment; for pest or weed control at 8966.8 g/ha: 8 lb/acre
# Procedure, shortened: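 Bean seedlings (Phaseolus vulgaris var. Black Valentine) were grown in potting soil in 3' pots until the primary leaves expanded. They were then sprayed under a hood with a removable belt and fixed nozzle, using 50 ml formulations. Afterward they were returned to the greenhouse and watered only by sub-irrigation. Percent control was judged visually two weeks after treatment.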
# [12] = test system: Yellow foxtail grass (YF); experiment: Pre-emergence herbicide test; type: in vivo, Setaria glauca; details: Setaria, 336 h, two weeks after treatment; for pest or weed control at 8966.8 g/ha: 8 lb/acre
# Procedure, shortened: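 Visual rating of injury/control made two weeks after a pre-emergence spray of 8 or 4 lbs active per acre (38 gal/acre) onto pots seeded the previous day. Greenhouse watering by sub-irrigation only.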
# Cotton (CT) [13] = experiment: Post-emergence herbicide test; type: in vivo, Gossypium hirsutum var. DPL smooth leaf; details: Gossypium hirsutum, post-emergence, 336 h, two weeks after treatment; for pest or weed control at 8966.8 g/ha: 8 lb/acre
# Procedure, shortened: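 This greenhouse post-emergence test measured how well spray treatments controlled cotton. Seedlings of Gossypium hirsutum var. DPL smooth leaf, with expanded cotyledons and a first true leaf 1' in length, were sprayed with 50 ml formulations in a belt-fed spray hood. They were then returned to the greenhouse and watered only by sub-irrigation. Injury was scored visually as % control after two weeks.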
# Amaranth pigweed (PW) [14] = experiment: Post-emergence herbicide test; type: in vivo, Amaranthus retroflexus; details: 336 h, two weeks after treatment; for pest or weed control at 8966.8 g/ha: 8 lb/acre
# Procedure, shortened: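 Visual injury or control ratings were made two weeks after spraying, with greenhouse watering by sub-irrigation only. Treatment was post-emergence, when pigweed seedlings had 1 or 2 true leaves, at 8 lbs active compound per acre (4 lbs/acre formulations also made) in a 38 gallons-per-acre spray volume.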
# Amaranth pigweed (PW) [15] = experiment: Pre-emergence herbicide test; type: in vivo, Amaranthus retroflexus; details: 336 h, two weeks after treatment; for pest or weed control at 8966.8 g/ha: 8 lb/acre
# Procedure, shortened: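 Visual injury or control ratings were made at two weeks on pre-emergence pots, sub-irrigated in the greenhouse. Seeds were sown a day before a hood spray delivering 8 lbs/acre (or 4 lbs/acre) of compound in 38 gallons per acre.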
# [16] = test system: Yellow foxtail grass (YF); experiment: Post-emergence herbicide test; type: in vivo, Setaria glauca; details: Setaria, 336 h, two weeks after treatment; for pest or weed control at 8966.8 g/ha: 8 lb/acre
# Procedure, shortened: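 Visual rating of injury/control made 2 weeks post-spray. Seedlings at a uniform growth stage in soil-filled pots received a hood spray of 8 lbs/acre active compound, 38 gallons/acre volume, with a 4 lbs/acre rate also formulated. Watering was by sub-irrigation only.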
# Crabgrass (CG) [17] = experiment: Post-emergence herbicide test; type: in vivo, Digitaria sanquinalis; details: Digitaria sanguinalis, post-emergence, 336 h, two weeks after treatment; for pest or weed control at 8966.8 g/ha: 8 lb/acre
# Procedure, shortened: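 Crabgrass (Digitaria sanquinalis) was surface seeded individually in 3' plastic pots of potting soil, covered with screened soil, and watered by sub-irrigation in greenhouse trays. Planting was staggered so seedlings reached the target stage together. Post-emergence sprays were applied in a hood with a removable belt and fixed nozzle, and control was visually rated two weeks after treatment.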
# Johnson grass (JG) [18] = experiment: Pre-emergence herbicide test; type: in vivo, Sorgum helepense; details: Sorghum halepense, 336 h, two weeks after treatment; for pest or weed control at 8966.8 g/ha: 8 lb/acre
# Procedure, shortened: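 Visual injury or control rating two weeks post-treatment, after pre-emergence spray of 8 or 4 lbs active per acre (38 gal/acre) onto pots sown the previous day. Greenhouse watering by sub-irrigation only.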
smiles,measurement,setting,value
CNC(=O)Nc1nnc(S(C)(=O)=O)s1 [Example 33],pest or weed control at 2241.7 g/ha,Turnip (TP) [1]; 2 lb/acre,90%
same,pest or weed control at 4483.4 g/ha,Turnip (TP) [1]; 4 lb/acre,100%
same,pest or weed control at 8966.8 g/ha,Turnip (TP) [1],100%
same,pest or weed control,Corn (CN) [2]; 2 lb/acre,20%
same,pest or weed control at 4483.4 g/ha,Corn (CN) [2]; 4 lb/acre,10%
same,pest or weed control at 8966.8 g/ha,Corn (CN) [2],100%
same,pest or weed control at 2241.7 g/ha,Barnyard grass (BG) [3]; 2 lb/acre,70%
same,pest or weed control at 4483.4 g/ha,Barnyard grass (BG) [3]; 4 lb/acre,70%
same,pest or weed control at 8966.8 g/ha,Barnyard grass (BG) [3],100%
same,pest or weed control,Crabgrass (CG) [4]; 2 lb/acre,90%
same,pest or weed control at 4483.4 g/ha,Crabgrass (CG) [4]; 4 lb/acre,90%
same,pest or weed control at 8966.8 g/ha,Crabgrass (CG) [4],90%
same,pest or weed control at 2241.7 g/ha,Corn (CN) [5]; 2 lb/acre,20%
same,pest or weed control at 4483.4 g/ha,Corn (CN) [5]; 4 lb/acre,20%
same,pest or weed control at 8966.8 g/ha,Corn (CN) [5],70%
same,pest or weed control at 2241.7 g/ha,Turnip (TP) [6]; 2 lb/acre,90%
same,pest or weed control at 4483.4 g/ha,Turnip (TP) [6]; 4 lb/acre,80%
same,pest or weed control at 8966.8 g/ha,Turnip (TP) [6],100%
same,pest or weed control at 2241.7 g/ha,Bean (BN) [7]; 2 lb/acre,100%
same,pest or weed control at 4483.4 g/ha,Bean (BN) [7]; 4 lb/acre,90%
same,pest or weed control at 8966.8 g/ha,Bean (BN) [7],90%
same,pest or weed control,Johnson grass (JG) [8]; 2 lb/acre,80%
same,pest or weed control at 4483.4 g/ha,Johnson grass (JG) [8]; 4 lb/acre,50%
same,pest or weed control at 8966.8 g/ha,Johnson grass (JG) [8],40%
same,pest or weed control at 2241.7 g/ha,Barnyard grass (BG) [9]; 2 lb/acre,70%
same,pest or weed control at 4483.4 g/ha,Barnyard grass (BG) [9]; 4 lb/acre,90%
same,pest or weed control at 8966.8 g/ha,Barnyard grass (BG) [9],80%
same,pest or weed control at 2241.7 g/ha,Cotton (CT) [10]; 2 lb/acre,40%
same,pest or weed control at 4483.4 g/ha,Cotton (CT) [10]; 4 lb/acre,50%
same,pest or weed control at 8966.8 g/ha,Cotton (CT) [10],50%
same,pest or weed control at 2241.7 g/ha,Bean (BN) [11]; 2 lb/acre,100%
same,pest or weed control at 4483.4 g/ha,Bean (BN) [11]; 4 lb/acre,100%
same,pest or weed control at 8966.8 g/ha,Bean (BN) [11],100%
same,pest or weed control at 2241.7 g/ha,[12]; 2 lb/acre,70%
same,pest or weed control at 4483.4 g/ha,[12]; 4 lb/acre,90%
same,pest or weed control at 8966.8 g/ha,[12],80%
same,pest or weed control at 2241.7 g/ha,Cotton (CT) [13]; 2 lb/acre,40%
same,pest or weed control at 4483.4 g/ha,Cotton (CT) [13]; 4 lb/acre,100%
same,pest or weed control at 8966.8 g/ha,Cotton (CT) [13],100%
same,pest or weed control at 2241.7 g/ha,Amaranth pigweed (PW) [14]; 2 lb/acre,50%
same,pest or weed control at 4483.4 g/ha,Amaranth pigweed (PW) [14]; 4 lb/acre,100%
same,pest or weed control at 8966.8 g/ha,Amaranth pigweed (PW) [14],100%
same,pest or weed control at 2241.7 g/ha,Amaranth pigweed (PW) [15]; 2 lb/acre,50%
same,pest or weed control at 4483.4 g/ha,Amaranth pigweed (PW) [15]; 4 lb/acre,60%
same,pest or weed control at 8966.8 g/ha,Amaranth pigweed (PW) [15],70%
same,pest or weed control,[16]; 2 lb/acre,70%
same,pest or weed control at 4483.4 g/ha,[16]; 4 lb/acre,100%
same,pest or weed control at 8966.8 g/ha,[16],90%
same,pest or weed control,Crabgrass (CG) [17]; 2 lb/acre,90%
same,pest or weed control at 4483.4 g/ha,Crabgrass (CG) [17]; 4 lb/acre,60%
same,pest or weed control at 8966.8 g/ha,Crabgrass (CG) [17],90%
same,pest or weed control at 2241.7 g/ha,Johnson grass (JG) [18]; 2 lb/acre,80%
same,pest or weed control at 4483.4 g/ha,Johnson grass (JG) [18]; 4 lb/acre,60%
same,pest or weed control at 8966.8 g/ha,Johnson grass (JG) [18],70%
CNC(=O)N(C)c1nnc(SC)s1 [Example 38],pest or weed control at 8966.8 g/ha,Turnip (TP) [1],100%
same,pest or weed control at 8966.8 g/ha,Corn (CN) [2],100%
same,pest or weed control at 8966.8 g/ha,Barnyard grass (BG) [3],90%
same,pest or weed control at 8966.8 g/ha,Crabgrass (CG) [4],100%
same,pest or weed control at 8966.8 g/ha,Corn (CN) [5],80%
same,pest or weed control at 8966.8 g/ha,Turnip (TP) [6],100%
same,pest or weed control at 8966.8 g/ha,Bean (BN) [7],100%
same,pest or weed control at 8966.8 g/ha,Johnson grass (JG) [8],80%
same,pest or weed control at 8966.8 g/ha,Barnyard grass (BG) [9],100%
same,pest or weed control at 8966.8 g/ha,Cotton (CT) [10],90%
same,pest or weed control at 8966.8 g/ha,Bean (BN) [11],100%
same,pest or weed control at 8966.8 g/ha,[12],100%
same,pest or weed control at 8966.8 g/ha,Cotton (CT) [13],100%
same,pest or weed control at 8966.8 g/ha,Amaranth pigweed (PW) [14],100%
same,pest or weed control at 8966.8 g/ha,Amaranth pigweed (PW) [15],90%
same,pest or weed control at 8966.8 g/ha,[16],100%
same,pest or weed control at 8966.8 g/ha,Crabgrass (CG) [17],80%
same,pest or weed control at 8966.8 g/ha,Johnson grass (JG) [18],80%
